Values after ≈ are worked out from the molar mass of the structure shown. Values joined by “and” are separate entries in the source; they are usually repeats but may differ in a detail not shown here. Equal values may be shown once.
What was measured:
Assay in all cases: ≥ marks a high value that may be exact or a test limit, other limits are often not marked, values filed in µg/mL are converted to µM
[1] = tested on: Bordetella bronchiseptica MTCC 6837
[2] = tested on: Klebsiella aerogenes MTCC 111
[3] = tested on: Proteus vulgaris MTCC 1771
[4] = tested on: Stenotrophomonas maltophilia MTCC 1890
[5] = tested on: Vibrio cholerae MTCC 3904
[6] = tested on: Shigella boydii MTCC 11947
[7] = tested on: Pluralibacter gergoviae MTCC 3826
[8] = tested on: Klebsiella pneumoniae MTCC 7407
[9] = tested on: Escherichia coli K12 MG1655
[10] = tested on: Proteus mirabilis MTCC 3158
[11] = tested on: Citrobacter freundii MTCC 1658
[12] = tested on: Haemophilus influenzae MTCC 621
[13] = tested on: Corynebacterium glutamicum MTCC 2679
[14] = tested on: Staphylococcus aureus MTCC 3160
[15] = tested on: Klebsiella oxytoca MTCC 2275
[16] = tested on: Staphylococcus haemolyticus MTCC 3383
[17] = tested on: Salmonella enterica subsp. enterica serovar Typhimurium ATCC 14028
[18] = tested on: Shigella flexneri MTCC 1457
[19] = tested on: Pseudomonas aeruginosa MTCC 3542
[20] = tested on: Enterococcus faecalis MTCC 439
[21] = tested on: Citrobacter koseri MTCC 1657
[22] = tested on: Salmonella enterica MTCC 9844
[23] = tested on: Acinetobacter baumannii MTCC 9829
[24] = tested on: Alkalihalobacillus alcalophilus MTCC 860
[25] = tested on: Alcaligenes faecalis MTCC 1937
Staphylococcus aureus = tested on: Staphylococcus aureus
[26] = tested on: Proteus vulgaris NBRC 3045
[27] = tested on: Pseudomonas aeruginosa NBRC 13275
[28] = tested on: Staphylococcus epidermidis
[29] = tested on: Escherichia coli NBRC 3972
[30] = tested on: Escherichia coli DH5alpha
[31] = tested on: Enterococcus faecalis ATCC 29212
Vibrio cholerae = tested on: Vibrio cholerae
[32] = tested on: Bacillus subtilis MTCC 14416
[33] = tested on: Staphylococcus aureus ATCC 43300
Escherichia coli MG1655 = tested on: Escherichia coli MG1655
[34] = tested on: Staphylococcus aureus MTCC 9542
[35] = tested on: Pseudomonas aeruginosa ATCC 27853
Escherichia coli = tested on: Escherichia coli
[36] = tested on: Staphylococcus haemolyticus
[37] = tested on: Pseudomonas aeruginosa PA006
Staphylococcus simulans = tested on: Staphylococcus simulans
Proteus mirabilis = tested on: Proteus mirabilis
Staphylococcus sciuri = tested on: Staphylococcus sciuri
Microsporum canis = tested on: Microsporum canis
Klebsiella pneumoniae = tested on: Klebsiella pneumoniae
[38] = tested on: Cryptococcus neoformans B3501
[39] = tested on: Staphylococcus pseudintermedius
[40] = tested on: Trichophyton rubrum ATCC 28189
[41] = tested on: Staphylococcus cohnii MW767053
[42] = tested on: Pseudomonas aeruginosa PA002
[43] = tested on: Trichophyton mentagrophytes
[44] = tested on: Pseudomonas aeruginosa PAO1
[45] = tested on: Microsporum canis MW768151
[46] = tested on: Candida albicans ATCC 90028
[47] = tested on: Staphylococcus pseudintermedius MW767056
[48] = tested on: Klebsiella pneumoniae ATCC 13833
[49] = tested on: Escherichia coli ATCC 25922
[50] = tested on: Staphylococcus epidermidis ATCC 12228

With CC[C@H](C)[C@H](NC(=O)[C@H](C)NC(=O)[C@@H]1CCCN1C(=O)[C@@H]1CCCN1C(=O)[C@H](CC(C)C)NC(=O)[C@H](Cc1cnc[nH]1)NC(=O)[C@H](CCCCN)NC(=O)[C@H](C)NC(=O)[C@@H](NC(=O)CNC(=O)[C@H](CCCCN)NC(=O)[C@H](C)NC(=O)[C@@H](NC(=O)[C@@H](N)CCC(=O)O)[C@@H](C)O)C(C)C)C(=O)N[C@@H](C)C(=O)O [ETAKGVAKHLPPAIA] the MIC [1] was ≥ 85.2 µM, the MIC [2] was ≥ 85.2 µM and the MIC [3] was ≥ 85.2 µM. For the same molecule, the MIC [4] was ≥ 85.2 µM, the MIC [5] was ≥ 85.2 µM and the MIC [6] was ≥ 85.2 µM. The MIC [7] was ≥ 85.2 µM, the MIC [8] was ≥ 85.2 µM and the MIC [9] was ≥ 85.2 µM. The MIC [10] was ≥ 85.2 µM, the MIC [11] was ≥ 85.2 µM and the MIC [12] was ≥ 85.2 µM. For the same molecule, the MIC [13] was ≥ 85.2 µM, the MIC [14] was ≥ 85.2 µM and the MIC [15] was ≥ 85.2 µM. For the same molecule, the MIC [16] was ≥ 85.2 µM, the MIC [17] was > 85.2 µM and the MIC [18] was ≥ 85.2 µM. The MIC [19] was ≥ 85.2 µM, the MIC [20] was ≥ 85.2 µM and the MIC [21] was ≥ 85.2 µM. For the same molecule, the MIC [22] was ≥ 85.2 µM, the MIC [23] was ≥ 85.2 µM and the MIC [24] was ≥ 85.2 µM. For the same molecule, the MIC [25] was ≥ 85.2 µM.

With CC(C)C[C@H](NC(=O)[C@H](CCCCN)NC(=O)CNC(=O)[C@H](CCCCN)NC(=O)[C@H](CC(C)C)NC(=O)[C@H](CCCCN)NC(=O)[C@H](CC(C)C)NC(=O)[C@H](CCCCN)NC(=O)[C@H](C)NC(=O)CNC(=O)[C@H](CC(C)C)NC(=O)[C@H](CCCCN)NC(=O)[C@H](CC(C)C)NC(=O)[C@H](CCCCN)NC(=O)[C@H](C)NC(=O)[C@H](CC(C)C)NC(=O)[C@H](CCCCN)NC(=O)[C@H](CCCCN)NC(=O)[C@@H](N)CCCCN)C(=O)NCC(=O)N[C@@H](C)C(N)=O [KKKLAKLKLGAKLKLKGKLGA] the MIC (Staphylococcus aureus) was 100 µM (≈ 223 µg/mL), the MIC [26] was ≥ 100 µM and the MIC [27] was 3.12 µM (≈ 6.98 µg/mL). It also gave an MIC [28] of 6.25 µM (≈ 14 µg/mL), an MIC [29] of 12.5 µM (≈ 27.9 µg/mL) and an MIC [30] of 25 µM (≈ 55.8 µg/mL).

In the case of CC[C@H](C)[C@H](N)C(=O)N[C@@H](C)C(=O)NCC(=O)N[C@@H](CC(C)C)C(=O)N[C@@H](C)C(=O)N[C@@H](C)C(=O)N[C@@H](CC(N)=O)C(=O)N[C@@H](Cc1ccccc1)C(=O)N[C@@H](CC(C)C)C(=O)N1CCC[C@H]1C(=O)N[C@@H](CCC(N)=O)C(=O)N[C@H](C(=O)N[C@@H](CC(C)C)C(=O)N[C@@H](CS)C(=O)N[C@@H](CCCCN)C(=O)N[C@H](C(=O)N[C@@H](C)C(=O)N[C@@H](CCCN=C(N)N)C(=O)N[C@@H](CCCCN)C(N)=O)[C@@H](C)CC)[C@@H](C)CC [IAGLAANFLPQILCKIARK], the MIC [31] is reported as 24.5 µM (≈ 50 µg/mL), the MIC (Vibrio cholerae) is reported as 24.5 µM (≈ 50 µg/mL) and the MIC [32] is reported as 24.5 µM (≈ 50 µg/mL). For the same molecule, the MIC [33] was 24.5 µM (≈ 50 µg/mL), the MIC (Escherichia coli MG1655) was 12.3 µM (≈ 25 µg/mL) and the MIC [34] was 24.5 µM (≈ 50 µg/mL). For the same molecule, the MIC [35] was > 49 µM.

In the case of CC[C@H](C)[C@H](NC(=O)[C@H](Cc1ccccc1)NC(=O)CNC(=O)[C@H](CCCCN)NC(=O)[C@@H](NC(=O)[C@H](Cc1ccccc1)NC(=O)[C@H](CCCCN)NC(=O)[C@H](CCCN=C(N)N)NC(=O)[C@@H](NC(=O)[C@@H](NC(=O)[C@H](CCCN=C(N)N)NC(=O)[C@@H](NC(=O)[C@H](C)NC(=O)[C@H](Cc1c[nH]c2ccccc12)NC(=O)[C@@H](N)CCCCN)C(C)C)[C@@H](C)CC)[C@@H](C)CC)[C@@H](C)CC)C(=O)N[C@@H](CO)C(N)=O [KWAVRIIRKFIKGFIS], the MIC (Escherichia coli) is reported as 1.44 µM and 2.88 µM, the MIC [36] is reported as ≥ 65.2 µM and the MIC [37] is reported as 2.04 µM (≈ 4 µg/mL). For the same molecule, the MIC [31] was 8.15 µM (≈ 16 µg/mL), the MIC (Staphylococcus simulans) was ≥ 32.6 µM and the MIC (Proteus mirabilis) was ≥ 65.2 µM. For the same molecule, the MIC (Staphylococcus sciuri) was ≥ 130 µM, the MIC (Microsporum canis) was 1.44 µM (≈ 2.83 µg/mL) and the MIC (Klebsiella pneumoniae) was 5.77 µM (≈ 11.3 µg/mL). The MIC [38] was 2 µM (≈ 3.92 µg/mL), the MIC [39] was ≥ 32.6 µM and the MIC [40] was 8 µM (≈ 15.7 µg/mL). For the same molecule, the MIC [41] was 16.3 µM (≈ 32 µg/mL), the MIC [42] was 8.15 µM (≈ 16 µg/mL) and the MIC [43] was 0.51 µM (≈ 1 µg/mL). It also gave an MIC [44] of 4.08 µM (≈ 8 µg/mL), an MIC [45] of 0.51 µM (≈ 1 µg/mL) and an MIC [46] of 1.67 µM (≈ 3.28 µg/mL). For the same molecule, the MIC [47] was ≥ 130 µM, the MIC [48] was 1 µM (≈ 1.96 µg/mL) and the MIC [49] was 2.04 µM and 2 µM. The MIC [35] was 4.08 µM and 1.67 µM and 4 µM and the MIC [50] was 1 µM (≈ 1.96 µg/mL).
